According to ChEMBL document CHEMBL4229447, “Synthesis and evaluation of thiomannosides, potent and orally active FimH inhibitors” (Bioorg Med Chem Lett, 2018):
Converted amounts (≈) assume the structure as drawn. The source made the active and inactive calls. The calls are words filed in the database; no cut-off is given here.

Columns and labels:
[1] = Solubility of the compound in pH 6.8 JP2 buffer; type: physicochemical
[2] = Metabolic stability in mouse liver microsomes after 30 mins; type: ADME, microsome; conditions: read-out: Stability
Mus musculus = test: Time at which simulated urine concentration stays above its HAI titer in mouse at 1 to 100 mg/kg, po; type: ADME, organism-based; conditions: in vivo
[3] = target: Type 1 fimbrin D-mannose specific adhesin (Escherichia coli K-12) (UniProt P08191); test: Inhibition of Escherichia coli UTI89 FimH assessed as reduction in […] guinea pig erythrocyte hemagglutination titer
Escherichia coli [4] = test: Antibacterial activity against Escherichia coli UTI89 in mouse prophylactic UTI model assessed as reduction in bacterial count in urinary bladder at 1 to 100 mg/kg, po administered 30 mins prior to infection measured at 2 and 24 hrs post infection; type: functional, organism-based
Escherichia coli [5] = test: Antibiofilm activity against Escherichia coli UTI89; type: functional, organism-based
[6] = Oral bioavailability in mouse at 10 mg/kg; type: ADME, organism-based; conditions: in vivo
hERG (KCNH2) = hERG (KCNH2) (Homo sapiens, UniProt Q12809); test: Inhibition of human ERG at 100 uM relative to control
[7] = Drug excretion in mouse urine at 10 mg/kg, po or 2 mg/kg, iv; type: ADME, organism-based; conditions: read-out: Drug excretion
[8] = Lipophilicity, log D of the compound at pH 7.4; type: physicochemical; conditions: buffer
Escherichia coli [9] = test: Antibiofilm activity against Escherichia coli UTI89 preformed biofilms; type: functional, organism-based
[10] = Mechanism based inactivation of CYP450 (unknown origin); type: ADME; conditions: human
[11] = Permeability of the compound by PAMPA; type: ADME; conditions: read-out: permeability

Type 1 fimbrin D-mannose specific adhesin (Escherichia coli K-12), sequence (P08191 whole entry): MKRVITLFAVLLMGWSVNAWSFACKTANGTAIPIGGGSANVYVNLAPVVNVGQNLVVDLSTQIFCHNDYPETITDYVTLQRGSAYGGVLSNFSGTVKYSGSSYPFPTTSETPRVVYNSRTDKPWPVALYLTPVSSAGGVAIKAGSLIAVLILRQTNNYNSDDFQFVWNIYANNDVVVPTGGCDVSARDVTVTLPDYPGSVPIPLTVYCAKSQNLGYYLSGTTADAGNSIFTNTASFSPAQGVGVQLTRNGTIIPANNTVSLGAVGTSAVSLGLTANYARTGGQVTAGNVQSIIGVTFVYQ
hERG (KCNH2), sequence (Q12809 whole entry): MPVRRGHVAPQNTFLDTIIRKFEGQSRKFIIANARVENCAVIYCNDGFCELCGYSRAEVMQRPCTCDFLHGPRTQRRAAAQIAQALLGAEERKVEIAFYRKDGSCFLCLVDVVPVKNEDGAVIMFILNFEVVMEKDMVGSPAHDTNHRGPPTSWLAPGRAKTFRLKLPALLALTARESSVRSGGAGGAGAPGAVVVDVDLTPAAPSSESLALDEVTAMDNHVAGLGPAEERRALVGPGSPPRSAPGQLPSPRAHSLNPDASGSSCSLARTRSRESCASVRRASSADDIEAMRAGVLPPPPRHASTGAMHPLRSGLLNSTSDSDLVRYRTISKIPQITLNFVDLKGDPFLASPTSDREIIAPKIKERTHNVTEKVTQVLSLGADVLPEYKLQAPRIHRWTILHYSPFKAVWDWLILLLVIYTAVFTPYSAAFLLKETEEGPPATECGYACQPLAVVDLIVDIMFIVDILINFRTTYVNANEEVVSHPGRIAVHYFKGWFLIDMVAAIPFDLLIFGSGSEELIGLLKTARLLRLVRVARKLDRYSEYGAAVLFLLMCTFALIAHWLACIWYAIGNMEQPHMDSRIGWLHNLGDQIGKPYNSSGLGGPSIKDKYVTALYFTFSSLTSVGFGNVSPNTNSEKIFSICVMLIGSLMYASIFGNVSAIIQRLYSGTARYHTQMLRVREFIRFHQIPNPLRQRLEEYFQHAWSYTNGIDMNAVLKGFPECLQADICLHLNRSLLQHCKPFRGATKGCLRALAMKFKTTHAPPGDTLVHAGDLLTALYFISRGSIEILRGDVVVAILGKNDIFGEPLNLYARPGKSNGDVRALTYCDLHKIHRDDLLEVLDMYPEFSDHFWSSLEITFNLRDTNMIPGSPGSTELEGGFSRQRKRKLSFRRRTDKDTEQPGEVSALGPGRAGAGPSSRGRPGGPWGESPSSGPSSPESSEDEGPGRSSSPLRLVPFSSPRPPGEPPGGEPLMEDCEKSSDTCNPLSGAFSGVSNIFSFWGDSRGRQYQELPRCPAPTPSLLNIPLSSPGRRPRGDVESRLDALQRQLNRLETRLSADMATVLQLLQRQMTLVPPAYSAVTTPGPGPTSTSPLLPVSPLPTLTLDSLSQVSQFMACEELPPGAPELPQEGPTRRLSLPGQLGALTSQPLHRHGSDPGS

solubility [1] [µg/mL] | remaining at 0.5 h [2] [%] | Time (Mus musculus) | EC90 [3] [nM] | IC50 (Escherichia coli [5]) [µg/mL] | bioavailability [6] [%] | dose excreted [7] [%] | logD [8] | IC50 (Escherichia coli [9]) [µg/mL] | Activity [10] | Papp [11] [×10⁻⁶ cm/s] | SMILES | Activity (Escherichia coli [4]) | inhibition at 100 µM (hERG (KCNH2)) [%]
663 (≈ 1690 µM) | 100 | <= 24 hr | 310 | 0.3 (≈ 0.762 µM) | 86 | 2.8 | 2.1 | 0.56 (≈ 1.42 µM) | Not Active | 12 to 30 | COc1ccc(-c2ccc(S[C@H]3O[C@H](CO)[C@@H](O)[C@H](O)[C@@H]3O)c(C)c2)cn1 | Active | 10.8
217 (≈ 518 µM) | 91 |  | 1250 |  | 14 | 7 | 2.1 |  |  |  | Cc1cc(-c2ccc(N3CCC3)nc2)ccc1S[C@H]1O[C@H](CO)[C@@H](O)[C@H](O)[C@@H]1O |  | 
582 (≈ 1340 µM) | 60 |  | 600 |  | 1 |  | 1.8 |  |  | ≤ 12 | CCCCn1ccc(-c2ccc(S[C@H]3O[C@H](CO)[C@@H](O)[C@H](O)[C@@H]3O)c(C)c2)cc1=O |  | 
863 (≈ 1980 µM) | 95 |  | 2500 |  | 1 | 8.1 | 1.5 |  |  | ≤ 12 | Cc1cc(-c2ccc(=O)n(CC(C)C)c2)ccc1S[C@H]1O[C@H](CO)[C@@H](O)[C@H](O)[C@@H]1O |  | 
668 (≈ 1640 µM) | 100 |  | 2500 |  |  |  | 0.7 |  |  | ≤ 12 | CCn1cc(-c2ccc(S[C@H]3O[C@H](CO)[C@@H](O)[C@H](O)[C@@H]3O)c(C)c2)ccc1=O |  | 
740 (≈ 1700 µM) | 95 |  | 600 |  | 3 | 7 | 1.7 |  |  | ≤ 12 | CCCCn1cc(-c2ccc(S[C@H]3O[C@H](CO)[C@@H](O)[C@H](O)[C@@H]3O)c(C)c2)ccc1=O |  | 
150 (≈ 366 µM) | 61 |  | 600 |  | 23 | 11.7 | 2.3 |  |  | ≤ 12 | CSc1ccc(-c2ccc(S[C@H]3O[C@H](CO)[C@@H](O)[C@H](O)[C@@H]3O)c(C)c2)cn1 |  | 
142 (≈ 312 µM) | 93 |  | 1250 |  | 15 | 24 | 1.2 |  |  | ≤ 12 | Cc1cc(-c2ccc(=O)n(-c3ccccc3)c2)ccc1S[C@H]1O[C@H](CO)[C@@H](O)[C@H](O)[C@@H]1O |  | 
719 (≈ 1830 µM) | 72 |  | 1250 |  |  |  | 0.3 |  |  | ≤ 12 | Cc1cc(-c2ccc(=O)n(C)c2)ccc1S[C@H]1O[C@H](CO)[C@@H](O)[C@H](O)[C@@H]1O |  | 
729 (≈ 1610 µM) | 97 |  | 1250 |  | 0 | 5.3 | 0.5 |  |  | ≤ 12 | Cc1cc(-c2ccc(=O)n(CC(C)(C)O)c2)ccc1S[C@H]1O[C@H](CO)[C@@H](O)[C@H](O)[C@@H]1O |  | 
